According to US12024507B2, “Compounds as GLP-1R agonists” (Terns Pharmaceuticals, Inc., priority 2021, dated 2024):

How the values were obtained:
human GLP-1R receptor = molecular target: T1, human GLP-1R receptor (Homo sapiens, UniProt P43220); experiment: GLP-1R cell assay (cAMP TR-FRET, low expression CHO-K1_hGLP-1Rlow_clone10 cell line); type: cell-based; conditions: CHO-K1_hGLP-1Rlow_clone10 cells, relative to control GLP-1 peptide agonist, read-out: GLP1 EC50
T1 construct: expressed in transfected cells
T1 sequence (P43220 24-463): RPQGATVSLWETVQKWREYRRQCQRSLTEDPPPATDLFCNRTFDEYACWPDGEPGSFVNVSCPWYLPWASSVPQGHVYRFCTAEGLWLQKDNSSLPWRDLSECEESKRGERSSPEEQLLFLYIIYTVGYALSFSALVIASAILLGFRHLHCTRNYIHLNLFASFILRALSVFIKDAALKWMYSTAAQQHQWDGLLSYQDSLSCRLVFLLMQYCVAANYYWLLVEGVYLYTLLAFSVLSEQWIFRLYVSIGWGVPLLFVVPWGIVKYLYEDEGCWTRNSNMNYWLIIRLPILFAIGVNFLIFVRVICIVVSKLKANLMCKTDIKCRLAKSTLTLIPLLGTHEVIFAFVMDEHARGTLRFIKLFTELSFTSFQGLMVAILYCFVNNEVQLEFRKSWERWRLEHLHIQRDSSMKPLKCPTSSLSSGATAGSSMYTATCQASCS
Protocol: Stable cell lines expressing high and low GLP-1R surface expression were generated in CHO-K1 cells transfected (Fugene 6) with a puromycin selectable DNA plasmid encoding human GLP-1R receptor (accession number: NM_002062.5) under control of an EF1A promoter. Transfected cells were seeded into 24-well plates (9,000 cells/well) containing complete medium and incubated in a humidified incubator at 37° C. with 5% carbon dioxide. After overnight incubation, medium was replaced with complete medium supplemented with puromycin (6 μg/mL) and refreshed every 2-3 days to select for stably transfected cells. Individual pools of selected cells were expanded prior to analysis for responsiveness to GLP-1 control peptide using a TR-FRET assay to detect cAMP (LANCE Ultra cAMP Assay, Perkin Elmer). Briefly, cells were collected in Versene solution, plated in 384-well plates (1,000 cells/well) and combined with serially diluted GLP-1R control peptide (10 nL) using an acoustic dispenser (ECHO). Plates were incubated for 30 minutes at 25° C. prior to the addition of EU-cAMP tracer (5 μL) and Ulight-anti-cAMP (5 μL) reagents to each well, followed by 15 minutes incubation at 25° C. TR-FRET signal was detected using an EnVision Multimode Plate Reader (excitation=320 nm; emission=615 and 655 nm). Dose-response curves were used to generate EC50 values as a measure of responsiveness to the GLP-1R control peptide. Selected cell lines were monitored for responsiveness over multiple passages to ensure stability. […] Briefly, GLP-1R expression was analyzed by flow cytometry using a fluorescein-labeled Exendin-4 peptide fluorescent probe (FLEX). Cells were harvested in Versene solution and washed 3-times with PBS+0.5% BSA before incubation with FLEX reagent (10 μM) for 2 hours at room temperature. After incubation, cells were washed 3-times in PBS+0.5% BSA before final resuspension in PBS prior to analysis by flow cytometry to measure FLEX mean fluorescence intensity (MFI) as a measure of GLP-1R expression on the cell surface.
For compound testing in the CHO-K1_hGLP-1Rlow_clone10 cell line, cells were seeded in 384-well plates (1,000 cells/well). Test compounds were serially diluted in DMSO (10-point, 3-fold dilution), added to wells using an ECHO dispenser (10 nL/well) and plates were centrifuged for 1 min and agitated for 2 min at room temperature prior to 30-minute incubation at 25° C. After incubation, Eu-cAMP (5 μL) and Ulight-anti-cAMP (5 μL) reagents were added to each well, followed by centrifugation for 1 minute, agitation for 2 minutes at room temperature, and final incubation of the plates at 25° C. for 15 minutes. Plates were read using an EnVision microplate reader (excitation=320 nm; emission=615 and 655 nm). Dose-response curves were generated from duplicate wells based on percent activation calculated relative to a control GLP-1 peptide agonist that was run in parallel. EC50 values were determined by fitting percent activation as a function of compound concentration using the Hill equation (XLfit).
The compounds tested were compound samples prepared according to the General Procedures described in the Examples section.

[1] = Metabolic stability in human hepatocytes; type: in vitro ADME; conditions: cryopreserved hepatocytes, 1×10^6 cells/mL; for CLint scaled at 1 μM: intrinsic clearance; for half-life at 1 μM: read-out: Human T1/2
Protocol: (§1) Test compounds were incubated in rat and human hepatocytes and stability was assessed from the substrate […] approach. Test compounds were dissolved in dimethyl sulfoxide (DMSO) to create a 10 mM Stock, and then further diluted to create a 1000×Working Stock of 1 mM with DMSO in 96-well plates for test compounds and the positive control (midazolam). Vials containing cryopreserved hepatocytes were removed from the liquid nitrogen tank and immediately immersed in a 37° C. water bath. The vials were shaken gently until the contents had thawed and were then immediately emptied into 48 mL of pre-warmed HT Medium in a 50 mL conical tube. Cells remaining in the vial were resuspended with 1.0 mL of pre-warmed HT Medium and added to the conical tube. The tube was capped and then gently inverted several times to resuspend the hepatocytes. The cell suspension was centrifuged at 50×g at room temperature for 5 minutes and the supernatant discarded. The cell pellet was loosened by gently swirling the centrifuge tube and was re-suspended in 4 mL of warm Dulbecco's Modified Eagle medium (DMEM). Cell density was determined by a cell counter by Nexcelom, and DMEM medium was added to obtain a target density of 1×10^6 cells/mL. The assay was carried out in 96-well microtiter plates. Test Compounds were incubated at 1 μM with 1×10^6 cells/mL hepatocytes in DMEM for 0, 30, 60, 120 and 240 minutes. The incubation was carried out with gentle shaking at 37° C. under a humid atmosphere of 95% air/5% CO2. The volume of the incubation mixture was 37 μL with a final 0.1% DMSO. At each of the time points, the incubation was stopped by adding 150 μL quenching solution (100% acetonitrile, 0.1% formic acid containing bucetin as an internal standard for positive ESI mode). Subsequently, the mixtures were vortexed for 20 min and centrifuged at 4,000 RPM at 10° C. The supernatant (80 μL) was transferred to a clean 96-well plate and analyzed by LC-MS/MS. Midazolam at 1 μM with a final 0.1% DMSO was included as a positive control to verify assay performance. The percent parent remaining, intrinsic and predicted hepatic clearance and t1/2 were calculated. All samples were analyzed by LC-MS/MS using an AB Sciex API 4000 instrument, coupled to a Shimadzu LC-20AD LC Pump system. Separation was achieved using a Waters Atlantis T3 dC18 reverse phase HPLC column (20 mm×2.1 mm) at a flow rate of 0.5 mL/min. The mobile phase consisted of 0.1% formic acid in water (solvent A) and 0.1% formic acid in 100% acetonitrile (solvent B). Elution conditions are detailed below.
(§2) The ion optics of each test compound were optimized for their declustering potential (DP), […] (CE), collision-cell exit potential (CXP) and used in a selected ion monitoring experiment in the positive ion mode. The peak area ratio of each test compound to internal standard was then evaluated for stability. The extent of metabolism was calculated based on the disappearance of the test compound, compared to its initial concentration. The initial rates of clearance of the test compound were calculated using the linear regression plot of semi-log % remaining of the compound versus time.
(§3) The predicted hepatic clearance (CLhep) was calculated using the well stirred method with the following formula with CLint(in vivo) normalized based on liver weight: CLint(in vivo)=CLint×Hepatocellularity×liver weight CLhep predicted=(CLint(in vivo)×Qliver)/(CLint(in vivo)+Qliver) Where Qliver ((ml/min/kg) is Liver Blood Flow
(§4) The relevant physiological parameters of liver weight, blood flow, and hepatocellularity for various species are listed below:
(§5) Results are presented in the Table B3 below for the intrinsic clearance (mL/min/kg) and half-life (t1/2).

[2] = Metabolic stability in rat hepatocytes; type: in vitro ADME; conditions: cryopreserved hepatocytes, 1×10^6 cells/mL; for CLint scaled at 1 μM: intrinsic clearance; for half-life at 1 μM: read-out: Rat T1/2
Protocol: as §1, §2, §3, §4, §5

Row | SMILES | EC50 (human GLP-1R receptor) [nM] | further results
1 | N#Cc1ccc(COc2cccc(N3CCN(Cc4nc5ccc(C(=O)NCC(F)(F)F)cc5n4Cc4ncco4)CC3)n2)c(F)c1 [Compound 3, 2-((4-(6-((4-cyano-2-fluorobenzyl)oxy)pyridin-2-yl)piperazin-1-yl)methyl)-1-(oxazol-2-ylmethyl)-N-(2,2,2-trifluoroethyl)-1H-benzo[d]imidazole-6-carboxamide] | 5940 | 
2 | CS(=O)(=O)NC(=O)c1ccc2nc(CN3CCN(c4cccc(OCc5ccc(C#N)cc5F)n4)CC3)n(Cc3ncco3)c2c1 [Compound 4, 2-((4-(6-((4-cyano-2-fluorobenzyl)oxy)pyridin-2-yl)piperazin-1-yl)methyl)-N-(dioxo-l5-sulfaneyl)-1-(oxazol-2-ylmethyl)-1H-benzo[d]imidazole-6-carboxamide] | 231 | 
3 | N#Cc1ccc(COc2cccc(C3CCN(Cc4nc5ccc(-c6nc(=O)o[nH]6)cc5n4C[C@@H]4CCO4)CC3)n2)c(F)c1 [Compound 5, (S)-3-fluoro-4-(((6-(1-((1-(oxetan-2-ylmethyl)-6-(5-oxo-2,5-dihydro-1,2,4-oxadiazol-3-yl)-1H-benzo[d]imidazol-2-yl)methyl)piperidin-4-yl)pyridin-2-yl)oxy)methyl)benzonitrile] | 45.4 | 
4 | O=c1cc(-c2ccc3nc(CN4CCC(c5cccc(OCc6ccc(Cl)cc6F)n5)CC4)n(C[C@@H]4CCO4)c3c2)o[nH]1 [Compound 6, (S)-5-(2-((4-(6-((4-chloro-2-fluorobenzyl)oxy)pyridin-2-yl)piperidin-1-yl)methyl)-1-(oxetan-2-ylmethyl)-1H-benzo[d]imidazol-6-yl)isoxazol-3(2H)-one] | 10.6 | 
5 | O=c1nc(-c2ccc3nc(CN4CCN(c5cccc(OCc6ccc(Br)cc6F)n5)CC4)n(C[C@@H]4CCO4)c3c2)[nH]o1 [Compound 7, (S)-3-(2-((4-(6-((4-bromo-2-fluorobenzyl)oxy)pyridin-2-yl)piperazin-1-yl)methyl)-1-(oxetan-2-ylmethyl)-1H-benzo[d]imidazol-6-yl)-1,2,4-oxadiazol-5(2H)-one] | 148 | 
6 | N#Cc1ccc(COc2cccc(C3CCN(Cc4nc5ccc(C6=CC(=O)NC6=O)cc5n4Cc4cncs4)CC3)n2)c(F)c1 [Compound 9, 4-(((6-(1-((6-(2,5-dioxo-2,5-dihydro-1H-pyrrol-3-yl)-1-(thiazol-5-ylmethyl)-1H-benzo[d]imidazol-2-yl)methyl)piperidin-4-yl)pyridin-2-yl)oxy)methyl)-3-fluorobenzonitrile] | 461 | 
7 | N#Cc1ccc(COc2cccc(C34CCN(Cc5nc6ccc(-c7nnn[nH]7)cc6n5Cc5cncs5)CC3C4)n2)c(F)c1 (centres unmarked) [Compound 10, 4-(((6-(3-((6-(1H-tetrazol-5-yl)-1-(thiazol-5-ylmethyl)-1H-benzo[d]imidazol-2-yl)methyl)-3-azabicyclo[4.1.0]heptan-6-yl)pyridin-2-yl)oxy)methyl)-3-fluorobenzonitrile] | 118 | 
8 | N#Cc1ccc(COc2cccc(C3CCN(Cc4nc5ccc(-c6nnn[nH]6)cc5n4Cc4cncs4)CC3)n2)c(F)c1 [Compound 11, 4-(((6-(1-((6-(1H-tetrazol-5-yl)-1-(thiazol-5-ylmethyl)-1H-benzo[d]imidazol-2-yl)methyl)piperidin-4-yl)pyridin-2-yl)oxy)methyl)-3-fluorobenzonitrile] | 53.2 | CLint scaled at 1 μM [1]: 19.7 ± 0.4 mL/min/kg; half-life at 1 μM [1]: 2.03 ± 0.041 h; CLint scaled at 1 μM [2]: 68.3 ± 2.52 mL/min/kg; half-life at 1 μM [2]: 0.812 ± 0.03 h
9 | N#Cc1ccc(COc2cccc(C3CCN(Cc4nc5ccc(-c6c[nH]c(=O)o6)cc5n4Cc4cncs4)CC3)n2)c(F)c1 [Compound 12, 3-fluoro-4-(((6-(1-((6-(2-oxo-2,3-dihydrooxazol-5-yl)-1-(thiazol-5-ylmethyl)-1H-benzo[d]imidazol-2-yl)methyl)piperidin-4-yl)pyridin-2-yl)oxy)methyl)benzonitrile] | 704 | 
10 | N#Cc1ccc(COc2cccc(C3CCN(Cc4nc5ccc(C(=O)NO)cc5n4C[C@@H]4CCO4)CC3)n2)c(F)c1 [Compound 14, (S)-2-((4-(6-((4-cyano-2-fluorobenzyl)oxy)pyridin-2-yl)piperidin-1-yl)methyl)-N-hydroxy-1-(oxetan-2-ylmethyl)-1H-benzo[d]imidazole-6-carboxamide] | 50 | 
11 | N#Cc1ccc(COc2cccc(C3CCN(Cc4nc5ccc(C6(O)COC6)cc5n4Cc4cncs4)CC3)n2)c(F)c1 [Compound 15, 3-fluoro-4-(((6-(1-((6-(3-hydroxyoxetan-3-yl)-1-(thiazol-5-ylmethyl)-1H-benzo[d]imidazol-2-yl)methyl)piperidin-4-yl)pyridin-2-yl)oxy)methyl)benzonitrile] | > 10000 | 
12 | CC1(c2ccc(C#N)cc2F)Oc2cccc(C3CCN(Cc4nc5ccc(-c6nnn[nH]6)cc5n4C[C@@H]4CCO4)CC3)c2O1 (stereo partly drawn) [Compound 16, 3-fluoro-4-(2-methyl-4-(1-((1-(((S)-oxetan-2-yl)methyl)-6-(1H-tetrazol-5-yl)-1H-benzo [d]imidazol-2-yl)methyl)piperidin-4-yl)benzo[d][1,3]dioxol-2-yl)benzonitrile] | 2.68 | CLint scaled at 1 μM [1]: 6.22 ± 0.55 mL/min/kg; half-life at 1 μM [1]: 6.44 ± 0.571 h; CLint scaled at 1 μM [2]: 6.93 mL/min/kg; half-life at 1 μM [2]: 8 h
